# Test results from the supplement of paper PMC11451515.
# System: SEM cells
# Assay: cell viability relative to DMSO control; higher = less cytotoxic
# Details: 48 h
# Summary of the method: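 NOMO1, SEM and P12-Ichikawa leukemia cells spent at least four passages adapting to each medium before use. They were seeded at 500 cells/well (NOMO1, SEM) or 1000 cells/well (P12-Ichikawa) in 5 μl in 1536-well plates and pin-dosed with library compounds in DMSO at 11 threefold steps from 47 μM down to 0.79 nM. After 48 h at 37°C, CellTiter-Glo One luminescence was read. Viability is reported as a percentage of the DMSO wells on each plate, with cell-free wells as background.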
# [1] = HPLM + 10% dialyzed FBS, 0.000781 µM
# [2] = HPLM + 10% dialyzed FBS, 0.00234 µM
# [3] = HPLM + 10% dialyzed FBS, 0.00702 µM
# [4] = HPLM + 10% dialyzed FBS, 0.0211 µM
# [5] = HPLM + 10% dialyzed FBS, 0.0632 µM
# [6] = HPLM + 10% dialyzed FBS, 0.19 µM
# [7] = HPLM + 10% dialyzed FBS, 0.569 µM
# [8] = HPLM + 10% dialyzed FBS, 1.71 µM
# [9] = HPLM + 10% dialyzed FBS, 5.12 µM
# [10] = HPLM + 10% dialyzed FBS, 15.4 µM
# [11] = HPLM + 10% dialyzed FBS, 46.1 µM
# [12] = RPMI 5 mM glucose + 10% FBS, 0.000781 µM
# [13] = RPMI 5 mM glucose + 10% FBS, 0.00234 µM
# [14] = RPMI 5 mM glucose + 10% FBS, 0.00702 µM
# [15] = RPMI 5 mM glucose + 10% FBS, 0.0211 µM
# [16] = RPMI 5 mM glucose + 10% FBS, 0.0632 µM
# [17] = RPMI 5 mM glucose + 10% FBS, 0.19 µM
# [18] = RPMI 5 mM glucose + 10% FBS, 0.569 µM
# [19] = RPMI 5 mM glucose + 10% FBS, 1.71 µM
# [20] = RPMI 5 mM glucose + 10% FBS, 5.12 µM
# [21] = RPMI 5 mM glucose + 10% FBS, 15.4 µM
# [22] = RPMI 5 mM glucose + 10% FBS, 46.1 µM
# [23] = RPMI 5 mM glucose + 10% dialyzed FBS, 0.000781 µM
# [24] = RPMI 5 mM glucose + 10% dialyzed FBS, 0.00234 µM
# [25] = RPMI 5 mM glucose + 10% dialyzed FBS, 0.00702 µM
# [26] = RPMI 5 mM glucose + 10% dialyzed FBS, 0.0211 µM
# [27] = RPMI 5 mM glucose + 10% dialyzed FBS, 0.0632 µM
# [28] = RPMI 5 mM glucose + 10% dialyzed FBS, 0.19 µM
# [29] = RPMI 5 mM glucose + 10% dialyzed FBS, 0.569 µM
# [30] = RPMI 5 mM glucose + 10% dialyzed FBS, 1.71 µM
# [31] = RPMI 5 mM glucose + 10% dialyzed FBS, 5.12 µM
# [32] = RPMI 5 mM glucose + 10% dialyzed FBS, 15.4 µM
# [33] = RPMI 5 mM glucose + 10% dialyzed FBS, 46.1 µM
smiles,measurement,setting,value
O=C(Nc1ccccc1)Nc1ccc(-c2ccc(C(=O)[C@@H]3CCC[C@H]3C(=O)O)cc2)cc1,cell viability,[1],101%
same,cell viability,[2],111%
same,cell viability,[3],101%
same,cell viability,[4],110%
same,cell viability,[5],110%
same,cell viability,[6],103%
same,cell viability,[7],99.8%
same,cell viability,[8],107%
same,cell viability,[9],108%
same,cell viability,[10],106%
same,cell viability,[11],105%
same,cell viability,[12],102%
same,cell viability,[13],102%
same,cell viability,[14],111%
same,cell viability,[15],108%
same,cell viability,[16],109%
same,cell viability,[17],99.5%
same,cell viability,[18],114%
same,cell viability,[19],97.6%
same,cell viability,[20],94.6%
same,cell viability,[21],91.2%
same,cell viability,[22],114%
same,cell viability,[23],109%
same,cell viability,[24],103%
same,cell viability,[25],107%
same,cell viability,[26],124%
same,cell viability,[27],104%
same,cell viability,[28],99.7%
same,cell viability,[29],101%
same,cell viability,[30],95.4%
same,cell viability,[31],113%
same,cell viability,[32],107%
same,cell viability,[33],123%
NC(=O)N1CCC(CC(=O)N2CCC([C@H]3c4ncc(Br)cc4CCc4cc(Cl)cc(Br)c43)CC2)CC1,cell viability,[1],106%
same,cell viability,[2],99.3%
same,cell viability,[3],114%
same,cell viability,[4],124%
same,cell viability,[5],111%
same,cell viability,[6],118%
same,cell viability,[7],72.5%
same,cell viability,[8],57.1%
same,cell viability,[9],48.6%
same,cell viability,[10],45.7%
same,cell viability,[11],34.8%
same,cell viability,[12],114%
same,cell viability,[13],122%
same,cell viability,[14],120%
same,cell viability,[15],129%
same,cell viability,[16],111%
same,cell viability,[17],122%
same,cell viability,[18],82.4%
same,cell viability,[19],66.3%
same,cell viability,[20],46%
same,cell viability,[21],44.4%
same,cell viability,[22],24.1%
same,cell viability,[23],98.1%
same,cell viability,[24],109%
same,cell viability,[25],110%
same,cell viability,[26],101%
same,cell viability,[27],97.2%
same,cell viability,[28],114%
same,cell viability,[29],95.9%
same,cell viability,[30],84.4%
same,cell viability,[31],56.1%
same,cell viability,[32],58%
same,cell viability,[33],17.8%
CC(=O)N(O)CCCCCNC(=O)CCC(=O)N(O)CCCCCNC(=O)CCC(=O)N(O)CCCCCN.C[S+](=O)([O-])O,cell viability,[1],74.3%
same,cell viability,[2],86.8%
same,cell viability,[3],77.7%
same,cell viability,[4],26.2%
same,cell viability,[5],25.3%
same,cell viability,[6],18.8%
same,cell viability,[7],22.5%
same,cell viability,[8],18.2%
same,cell viability,[9],23.9%
same,cell viability,[10],23.2%
same,cell viability,[11],23.2%
same,cell viability,[12],96.8%
same,cell viability,[13],54.4%
same,cell viability,[14],30.4%
same,cell viability,[15],18.5%
same,cell viability,[16],20.6%
same,cell viability,[17],20.9%
same,cell viability,[18],20.6%
same,cell viability,[19],14.4%
same,cell viability,[20],18.5%
same,cell viability,[21],15.9%
same,cell viability,[22],16.3%
same,cell viability,[23],81%
same,cell viability,[24],82.9%
same,cell viability,[25],94.4%
same,cell viability,[26],30.2%
same,cell viability,[27],25.4%
same,cell viability,[28],19.3%
same,cell viability,[29],18.7%
same,cell viability,[30],20.2%
same,cell viability,[31],19.3%
same,cell viability,[32],23.6%
same,cell viability,[33],23.7%
CNC(=O)c1nn(C)c2c1C(C)(C)Cc1cnc(Nc3ccc(N4CCN(C)CC4)cc3)nc1-2,cell viability,[1],108%
same,cell viability,[2],101%
same,cell viability,[3],103%
same,cell viability,[4],93%
same,cell viability,[5],89.1%
same,cell viability,[6],64.6%
same,cell viability,[7],39.3%
same,cell viability,[8],16%
same,cell viability,[9],12%
same,cell viability,[10],7.99%
same,cell viability,[11],7.09%
same,cell viability,[12],115%
same,cell viability,[13],97.1%
same,cell viability,[14],113%
same,cell viability,[15],104%
same,cell viability,[16],86.5%
same,cell viability,[17],67.4%
same,cell viability,[18],48.8%
same,cell viability,[19],13.8%
same,cell viability,[20],8.18%
same,cell viability,[21],5.66%
same,cell viability,[22],2.21%
same,cell viability,[23],97.9%
same,cell viability,[24],101%
same,cell viability,[25],101%
same,cell viability,[26],110%
same,cell viability,[27],78.6%
same,cell viability,[28],69.5%
same,cell viability,[29],47.2%
same,cell viability,[30],16.8%
same,cell viability,[31],9.79%
same,cell viability,[32],7.03%
same,cell viability,[33],4.75%
O=c1oc2cc(O)ccc2s1,cell viability,[1],85.6%
same,cell viability,[2],110%
same,cell viability,[3],98.9%
same,cell viability,[4],95.4%
same,cell viability,[5],109%
same,cell viability,[6],105%
same,cell viability,[7],120%
same,cell viability,[8],93.9%
same,cell viability,[9],111%
same,cell viability,[10],105%
same,cell viability,[11],37.9%
same,cell viability,[12],91.8%
same,cell viability,[13],106%
same,cell viability,[14],82.9%
same,cell viability,[15],110%
same,cell viability,[16],103%
same,cell viability,[17],98.6%
same,cell viability,[18],112%
same,cell viability,[19],118%
same,cell viability,[20],109%
same,cell viability,[21],77.6%
same,cell viability,[22],24.8%
same,cell viability,[23],97.4%
same,cell viability,[24],119%
same,cell viability,[25],99.3%
same,cell viability,[26],109%
same,cell viability,[27],121%
same,cell viability,[28],88.3%
same,cell viability,[29],112%
same,cell viability,[30],106%
same,cell viability,[31],129%
same,cell viability,[32],90.3%
same,cell viability,[33],37.6%
COc1cc2cc(c1Cl)N(C)C(=O)C[C@H](OC(=O)C(C)C)[C@]1(C)O[C@@H]1[C@H](C)[C@@H]1C[C@@](O)(NC(=O)O1)[C@H](OC)/C=C/C=C(\C)C2,cell viability,[1],27.9%
same,cell viability,[2],26%
same,cell viability,[3],28.5%
same,cell viability,[4],22.6%
same,cell viability,[5],15.2%
same,cell viability,[6],9.09%
same,cell viability,[7],7.19%
same,cell viability,[8],6.56%
same,cell viability,[9],5.59%
same,cell viability,[10],4.17%
same,cell viability,[11],2.54%
same,cell viability,[12],21.3%
same,cell viability,[13],24.2%
same,cell viability,[14],21.4%
same,cell viability,[15],12.7%
same,cell viability,[16],9.24%
same,cell viability,[17],8.39%
same,cell viability,[18],7.82%
same,cell viability,[19],6.35%
same,cell viability,[20],4.76%
same,cell viability,[21],4.03%
same,cell viability,[22],2.1%
same,cell viability,[23],24.3%
same,cell viability,[24],24%
same,cell viability,[25],20.2%
same,cell viability,[26],14.5%
same,cell viability,[27],8.42%
same,cell viability,[28],5.55%
same,cell viability,[29],5.76%
same,cell viability,[30],5.03%
same,cell viability,[31],4.42%
same,cell viability,[32],3.49%
same,cell viability,[33],1.84%
CC(C)C[C@H](CC(=O)O)C(=O)N[C@@H](Cc1c[nH]c2ccccc12)C(=O)N[C@@H](C)c1ccccc1,cell viability,[1],96.1%
same,cell viability,[2],100%
same,cell viability,[3],119%
same,cell viability,[4],113%
same,cell viability,[5],106%
same,cell viability,[6],105%
same,cell viability,[7],7.87%
same,cell viability,[8],92.1%
same,cell viability,[9],112%
same,cell viability,[10],73.1%
same,cell viability,[11],54%
same,cell viability,[12],96.1%
same,cell viability,[13],112%
same,cell viability,[14],125%
same,cell viability,[15],116%
same,cell viability,[16],110%
same,cell viability,[17],122%
same,cell viability,[18],8.87%
same,cell viability,[19],86.2%
same,cell viability,[20],96.9%
same,cell viability,[21],65.9%
same,cell viability,[22],54.3%
same,cell viability,[23],77.7%
same,cell viability,[24],90.4%
same,cell viability,[25],97.3%
same,cell viability,[26],113%
same,cell viability,[27],89.6%
same,cell viability,[28],87.2%
same,cell viability,[29],8.39%
same,cell viability,[30],79.4%
same,cell viability,[31],90.2%
same,cell viability,[32],53.7%
same,cell viability,[33],46.4%
